# Values of other authors, collected in US20220304303A1, “INSECT REPELLENT PATCHES” (The Natural Patch Company Pty Ltd, priority 2021, published 2022).
# Conditions: products containing between 10% and 30% DEET, used as directed
compound,measurement,value
"CCN(CC)C(=O)c1cccc(C)c1 [DEET, Diethyltoluamide]",safety in use on children and adults,"safe to use on children, as well as adults"
